In the first test the target is p38 MAP kinase (Homo sapiens, UniProt Q16539). Kind of test: p38 MAP Kinase Assay (33P incorporation into myelin basic protein, filter plate). Type of test: biochemical. As to conditions: Table 1; MKK6-activated p38, MBP substrate, 50 minutes. The protocol:
The activated p38 is then diluted 1:6 with assay buffer, and 20 μl mixed with 25 μl of MBP mix (300 μl 10×strength assay buffer, 300 μl of 10 mM DTT & 10 mM sodium orthovanadate, 1.7 ml H2O, 50 μCi γ^33P-ATP, 200 μl of myelin basic protein (MBP) (5 mg/ml)) and added to 96 well plates along with 5 μl of various dilutions of the test compound in DMSO (up to 10%). The reaction is allowed to proceed for 50 minutes before being stopped with an excess of ortho-phosphoric acid (30 μl at 2%).
γ^33P-ATP which remains unincorporated into the myelin basic protein is separated from phosphorylated MBP on a Millipore MAPH filter plate. The wells of the MAPH plate are wetted with 0.5% orthophosphoric acid, and then the results of the reaction are filtered with a Millipore vacuum filtration unit through the wells. Following filtration, the residue is washed twice with 200 μl of 0.5% orthophosphoric acid. Once the filters have dried, 25 μl of Microscint 20 scintillant is added, and then counted on a Packard Topcount for 30 seconds.
Sequence of p38 MAP kinase (Q16539 whole entry): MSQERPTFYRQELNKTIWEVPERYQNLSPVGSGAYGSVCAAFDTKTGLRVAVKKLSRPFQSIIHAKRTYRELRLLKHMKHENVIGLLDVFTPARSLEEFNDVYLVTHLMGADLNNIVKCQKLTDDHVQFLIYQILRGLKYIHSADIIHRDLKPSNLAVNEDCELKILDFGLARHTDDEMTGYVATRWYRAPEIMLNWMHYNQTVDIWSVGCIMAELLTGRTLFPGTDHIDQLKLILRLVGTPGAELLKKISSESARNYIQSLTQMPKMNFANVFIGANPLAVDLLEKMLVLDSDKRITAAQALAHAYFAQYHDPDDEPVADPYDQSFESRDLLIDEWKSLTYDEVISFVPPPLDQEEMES
With `Cc1cccc(COc2cccnc2N)c1F` [Compound 28], the IC50 was under 1000 µM.

As to `O=C1c2ccccc2C(O)N1c1ccc(Cl)c(COc2cccnc2)c1` (centres unmarked) [Compound 73], the IC50 was under 200 µM.

`O=C(Nc1ccc(Cl)c(COc2cccnc2)c1)c1cccc(Cl)c1` [Compound 70, 3-Chloro-N-[4-chloro-3-(pyridin-3-yloxymethyl)-phenyl]-benzamide]: the IC50 was under 20 µM.

Turning to `Nc1ncccc1OCc1ccc(Cl)cc1Cl` [Compound 15, 2-amino-3-(2,4-dichlorobenzyloxy)pyridine], the IC50 was under 1000 µM.

In turn, `O=C1c2ccccc2C(=O)N1c1ccc(Cl)c(COc2cccnc2)c1` [Compound 68, 2-[4-Chloro-3-(pyridin-3-yloxymethyl)-phenyl]-isoindole-1,3-dione] had an IC50 of under 1000 µM.

For `O=C(Nc1ccc(Cl)c(COc2cccnc2)c1)Oc1ccccc1` [Compound 79, [4-Chloro-3-(pyridin-3-yloxymethyl)-phenyl]-carbamic acid phenyl ester], the IC50 was under 20 µM.

As to `Cc1ccc2ccccc2c1COc1cccnc1N` [Compound 30], the IC50 is under 100 µM.

The test is the same for the next values; noted with them: Table 2; MKK6-activated p38, MBP substrate, 50 minutes.
For `CC(C)(C)c1cc(NC(=O)Nc2ccc(F)c(COc3cnccn3)c2)n(-c2ccncc2)n1` [Compound 160, 1-(5-tert-Butyl-2-pyridin-4-yl-2H-pyrazol-3-yl)-3-[4-fluoro-3-(pyrazin-2-yloxymethyl)-phenyl]-urea], the IC50 was under 2 µM.

The compound `Clc1cccc(Cl)c1COc1cnc(N2CCOCC2)cn1` [Compound 152, 4-[5-(2,6-Dichloro-benzyloxy)-pyrazin-2-yl]-morpholine] yielded an IC50 of under 200 µM.

Take `O=C(Nc1ccc(F)c(COc2cnccn2)c1)c1ccc(=O)n(Cc2ccccc2)c1` [Compound 147, 1-Benzyl-6-oxo-1,6-dihydro-pyridine-3-carboxylic acid [4-fluoro-3-(pyrazin-2-yloxymethyl)-phenyl]-amide]: the IC50 is under 20 µM.

The compound `O=C(Nc1ccc(Cl)c(COc2cnccn2)c1)c1ccnc(N2CCOCC2)c1` [Compound 93, N-[4-Chloro-3-(pyrazin-2-yloxymethyl)-phenyl]-2-morpholin-4-yl-isonicotinamide] came in with an IC50 of under 2 µM.

As for `O=C(Nc1ccc(Cl)c(COc2cnccn2)c1)c1ccccc1` [Compound 92, N-[4-Chloro-3-(pyrazin-2-yloxymethyl)-phenyl]-benzamide], the IC50 is under 20 µM.

In the case of `Nc1nccnc1OCc1c(Cl)cccc1Cl` [Compound 90], the IC50 is under 1000 µM.

As to `Clc1cccc(Cl)c1COc1cnc(NCc2ccccc2)cn1` [Compound 141, Benzyl-[5-(2,6-dichloro-benzyloxy)-pyrazin-2-yl]-amine], the IC50 is under 20 µM.

In turn, `O=C(Nc1ccc(F)c(COc2cnccn2)c1)c1nnc(-c2ccccc2)o1` [Compound 126, 5-Phenyl-[1,3,4]oxadiazole-2-carboxylic acid [4-fluoro-3-(pyrazin-2-yloxymethyl)-phenyl]-amide] had an IC50 of under 2 µM.

The compound `Clc1cnc(OCc2c(Cl)cccc2Cl)cn1` [Compound 88] yielded an IC50 of under 1000 µM.

`O=C(Nc1ccc(F)c(COc2cnccn2)c1)Nc1cc(-c2ccc(Cl)cc2)nn1-c1ccccc1` [Compound 128, 1-[5-(4-Chloro-phenyl)-2-phenyl-2H-pyrazol-3-yl]-3-[4-fluoro-3-(pyrazin-2-yloxymethyl)-phenyl]-urea]: the IC50 was under 2 µM.

Compound `CC(C)(C)c1ccc2[nH]cc(CC(=O)Nc3ccc(F)c(COc4cnccn4)c3)c2c1` [Compound 143] gave an IC50 of under 200 µM.

In the case of `CC(C)(C)c1cc(NC(=O)Nc2ccc(F)c(COc3cnccn3)c2)n(-c2ccc(F)cc2F)n1` [Compound 125, 1-[5-tert-Butyl-2-(2,4-difluoro-phenyl)-2H-pyrazol-3-yl]-3-[4-fluoro-3-(pyrazin-2-yloxymethyl)-phenyl]-urea], the IC50 was under 2 µM.

With `O=C(Nc1ccc(F)c(COc2cnccn2)c1)c1ccc(-c2ccccc2)cc1` [Compound 133, Biphenyl-4-carboxylic acid [4-fluoro-3-(pyrazin-2-yloxymethyl)-phenyl]-amide], the IC50 was under 200 µM.
